How the values were obtained:
[1] = target: T1, Alpha-1D adrenergic receptor (Homo sapiens, UniProt P25100); type: cell membranes, HEK293, Membrane; conditions: hek293; also: in other assays of this panel Not Active means under 50% inhibition at 10 µM
T1 sequence (P25100 whole entry): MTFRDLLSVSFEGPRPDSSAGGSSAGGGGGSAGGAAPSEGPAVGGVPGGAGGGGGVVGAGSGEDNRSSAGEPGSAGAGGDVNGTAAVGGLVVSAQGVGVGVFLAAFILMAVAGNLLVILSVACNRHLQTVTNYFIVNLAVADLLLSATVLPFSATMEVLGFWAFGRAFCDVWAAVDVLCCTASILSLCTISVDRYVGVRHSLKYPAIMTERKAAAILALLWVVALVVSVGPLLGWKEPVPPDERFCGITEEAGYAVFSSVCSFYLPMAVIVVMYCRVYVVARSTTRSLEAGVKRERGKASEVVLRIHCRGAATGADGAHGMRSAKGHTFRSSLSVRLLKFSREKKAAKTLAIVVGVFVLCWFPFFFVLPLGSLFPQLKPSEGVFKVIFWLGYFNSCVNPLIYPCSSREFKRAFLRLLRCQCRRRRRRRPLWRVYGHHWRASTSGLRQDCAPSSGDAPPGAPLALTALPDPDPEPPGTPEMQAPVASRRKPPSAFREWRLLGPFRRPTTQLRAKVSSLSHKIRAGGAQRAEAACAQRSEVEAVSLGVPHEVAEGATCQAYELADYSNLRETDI

[2] = DRUGMATRIX: Atrial Natriuretic Factor (ANF) radioligand binding (ligand: [125I] ANF (rat)); type: cell membranes, Cavia porcellus, Dunkin-Hartley, Adrenal gland, Membrane; conditions: Not Active = under 50% inhibition at 10 µM
[3] = target: T2, Thromboxane-A synthase (Homo sapiens, UniProt P24557); assay: biochemical; type: tissue-based, Platelet; conditions: platelet;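 also: enzyme inhibition assay with PGH2 supplied as substrate; in other assays of this panel Not Active means under 50% inhibition at 10 µM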
T2 sequence (P24557 whole entry): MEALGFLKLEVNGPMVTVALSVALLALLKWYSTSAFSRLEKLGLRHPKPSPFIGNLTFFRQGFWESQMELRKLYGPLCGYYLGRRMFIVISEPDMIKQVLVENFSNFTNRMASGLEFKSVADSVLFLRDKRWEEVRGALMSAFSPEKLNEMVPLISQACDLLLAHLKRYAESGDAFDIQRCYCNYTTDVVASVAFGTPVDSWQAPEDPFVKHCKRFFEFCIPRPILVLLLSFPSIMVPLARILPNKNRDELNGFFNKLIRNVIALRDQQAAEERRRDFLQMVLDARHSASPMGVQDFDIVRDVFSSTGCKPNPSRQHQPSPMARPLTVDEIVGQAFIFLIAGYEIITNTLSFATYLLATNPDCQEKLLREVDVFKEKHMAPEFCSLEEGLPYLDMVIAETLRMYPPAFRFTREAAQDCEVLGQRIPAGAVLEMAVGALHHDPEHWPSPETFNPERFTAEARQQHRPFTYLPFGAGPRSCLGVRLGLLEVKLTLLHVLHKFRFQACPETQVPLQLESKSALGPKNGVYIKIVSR

[4] = target: Vascular endothelial growth factor receptor 1 (Homo sapiens, UniProt P17948); type: cell-based; conditions: huvec; also: in other assays of this panel Not Active means under 50% inhibition at 10 µM
[5] = target: C-C chemokine receptor type 5 (Homo sapiens, UniProt P51681); type: cell membranes, Membrane; conditions: hek293; also: in other assays of this panel Not Active means under 50% inhibition at 10 µM
[6] = target: T3, Cysteinyl leukotriene receptor 1 (Homo sapiens, UniProt Q9Y271); type: cell membranes, CHO-K1, Membrane; conditions: cho-k1; also: in other assays of this panel Not Active means under 50% inhibition at 10 µM
T3 sequence (Q9Y271 whole entry): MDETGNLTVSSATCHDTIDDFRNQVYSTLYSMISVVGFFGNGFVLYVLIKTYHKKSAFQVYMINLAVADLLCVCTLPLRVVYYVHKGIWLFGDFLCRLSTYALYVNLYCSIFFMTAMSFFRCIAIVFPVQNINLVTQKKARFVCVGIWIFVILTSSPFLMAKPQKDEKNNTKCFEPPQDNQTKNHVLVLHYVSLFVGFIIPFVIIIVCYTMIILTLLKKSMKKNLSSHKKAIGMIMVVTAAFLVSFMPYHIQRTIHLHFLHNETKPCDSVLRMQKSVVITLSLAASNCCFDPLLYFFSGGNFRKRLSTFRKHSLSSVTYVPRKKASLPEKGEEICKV

[7] = target: T4, Neuropeptide Y receptor type 2 (Homo sapiens, UniProt P49146); type: cell membranes, Membrane; conditions: kan-ts; also: in other assays of this panel Not Active means under 50% inhibition at 10 µM
T4 sequence (P49146 whole entry): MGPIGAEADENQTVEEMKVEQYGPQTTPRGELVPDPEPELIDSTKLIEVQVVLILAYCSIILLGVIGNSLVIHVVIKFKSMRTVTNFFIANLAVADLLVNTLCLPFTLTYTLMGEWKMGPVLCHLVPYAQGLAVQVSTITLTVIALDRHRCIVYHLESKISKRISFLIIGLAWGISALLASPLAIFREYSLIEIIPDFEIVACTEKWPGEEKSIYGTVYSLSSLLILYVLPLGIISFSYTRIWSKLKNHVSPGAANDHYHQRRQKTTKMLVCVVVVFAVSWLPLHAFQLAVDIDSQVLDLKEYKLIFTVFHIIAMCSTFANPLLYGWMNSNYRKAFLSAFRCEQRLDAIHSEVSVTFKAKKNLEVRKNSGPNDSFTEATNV

[8] = target: cGMP-specific 3',5'-cyclic phosphodiesterase (Homo sapiens, UniProt O76074); assay: DRUGMATRIX: Phosphodiesterase PDE5 enzyme inhibition (substrate: [3H]cGMP + cGMP); type: tissue-based, Platelet; conditions: platelet; Not Active = under 50% inhibition at 10 µM
[9] = target: Platelet-activating factor receptor (Homo sapiens, UniProt P25105); assay: biochemical; type: tissue-based; conditions: platelet; also: in other assays of this panel Not Active means under 50% inhibition at 10 µM
[10] = target: Mitogen-activated protein kinase 1 (Homo sapiens, UniProt P28482); assay: DRUGMATRIX: Protein Serine/Threonine Kinase, ERK2 enzyme inhibition (substrate: Myelin Basic Protein); parameters: species or system Escherichia coli; conditions: Not Active = under 50% inhibition at 10 µM
[11] = target: 5-hydroxytryptamine receptor 1B (Rattus norvegicus, UniProt P28564); type: cell membranes, Wistar, Cerebral cortex, Membrane; also: in other assays of this panel Not Active means under 50% inhibition at 10 µM
5-hydroxytryptamine receptor 1B, sequence (P28564 whole entry): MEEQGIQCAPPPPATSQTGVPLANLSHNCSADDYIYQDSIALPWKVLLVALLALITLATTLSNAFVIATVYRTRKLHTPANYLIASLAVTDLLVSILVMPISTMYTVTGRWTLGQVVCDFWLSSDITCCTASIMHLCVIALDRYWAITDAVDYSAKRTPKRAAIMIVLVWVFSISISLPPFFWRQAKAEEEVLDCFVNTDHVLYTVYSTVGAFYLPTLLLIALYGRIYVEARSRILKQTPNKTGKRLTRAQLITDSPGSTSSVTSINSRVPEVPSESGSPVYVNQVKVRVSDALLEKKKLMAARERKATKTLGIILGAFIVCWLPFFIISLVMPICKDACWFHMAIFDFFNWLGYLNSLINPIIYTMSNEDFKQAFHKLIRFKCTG

Vascular endothelial growth factor receptor 1, sequence (P17948 whole entry): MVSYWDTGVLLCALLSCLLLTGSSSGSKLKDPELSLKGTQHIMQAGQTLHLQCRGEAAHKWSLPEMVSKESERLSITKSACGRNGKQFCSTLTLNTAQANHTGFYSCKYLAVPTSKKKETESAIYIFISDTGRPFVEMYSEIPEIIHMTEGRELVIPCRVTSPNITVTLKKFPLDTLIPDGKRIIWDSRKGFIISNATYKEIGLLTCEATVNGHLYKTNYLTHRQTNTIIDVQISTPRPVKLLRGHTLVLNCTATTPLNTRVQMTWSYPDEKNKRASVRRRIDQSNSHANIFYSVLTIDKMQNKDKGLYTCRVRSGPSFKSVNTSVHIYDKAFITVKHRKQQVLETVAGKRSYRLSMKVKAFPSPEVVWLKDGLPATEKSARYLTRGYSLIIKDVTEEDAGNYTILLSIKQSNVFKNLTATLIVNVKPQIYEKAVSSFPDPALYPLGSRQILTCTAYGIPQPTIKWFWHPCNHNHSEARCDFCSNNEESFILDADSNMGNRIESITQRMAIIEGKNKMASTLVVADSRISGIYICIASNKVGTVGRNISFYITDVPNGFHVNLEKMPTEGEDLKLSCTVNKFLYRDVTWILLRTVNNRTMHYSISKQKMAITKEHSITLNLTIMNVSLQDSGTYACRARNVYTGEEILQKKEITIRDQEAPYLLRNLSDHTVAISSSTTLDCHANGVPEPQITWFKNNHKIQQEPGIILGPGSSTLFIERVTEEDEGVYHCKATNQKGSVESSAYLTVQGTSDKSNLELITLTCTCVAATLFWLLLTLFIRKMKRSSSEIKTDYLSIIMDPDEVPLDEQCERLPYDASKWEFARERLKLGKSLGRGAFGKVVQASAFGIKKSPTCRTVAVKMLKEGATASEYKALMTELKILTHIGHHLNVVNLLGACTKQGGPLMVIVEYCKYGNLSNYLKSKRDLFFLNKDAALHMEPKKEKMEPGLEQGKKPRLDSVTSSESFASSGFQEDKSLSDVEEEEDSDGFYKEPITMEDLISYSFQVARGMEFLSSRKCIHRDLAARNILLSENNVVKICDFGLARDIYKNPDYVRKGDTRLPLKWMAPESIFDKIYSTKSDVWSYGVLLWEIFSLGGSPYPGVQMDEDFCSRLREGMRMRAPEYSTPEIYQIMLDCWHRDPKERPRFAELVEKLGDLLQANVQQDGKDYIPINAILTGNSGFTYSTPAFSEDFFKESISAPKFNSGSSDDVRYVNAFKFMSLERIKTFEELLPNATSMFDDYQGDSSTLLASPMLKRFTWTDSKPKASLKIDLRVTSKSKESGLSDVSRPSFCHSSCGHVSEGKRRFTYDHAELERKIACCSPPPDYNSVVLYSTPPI
Platelet-activating factor receptor, sequence (P25105 whole entry): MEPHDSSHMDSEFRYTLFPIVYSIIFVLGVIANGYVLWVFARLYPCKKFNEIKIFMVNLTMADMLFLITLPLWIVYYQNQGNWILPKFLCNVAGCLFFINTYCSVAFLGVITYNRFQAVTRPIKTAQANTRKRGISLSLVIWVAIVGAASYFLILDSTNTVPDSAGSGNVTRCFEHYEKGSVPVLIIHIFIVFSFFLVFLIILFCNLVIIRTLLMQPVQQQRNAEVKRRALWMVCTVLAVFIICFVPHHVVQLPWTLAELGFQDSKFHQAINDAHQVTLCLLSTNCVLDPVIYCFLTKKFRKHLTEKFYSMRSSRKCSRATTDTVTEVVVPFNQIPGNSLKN
C-C chemokine receptor type 5, sequence (P51681 whole entry): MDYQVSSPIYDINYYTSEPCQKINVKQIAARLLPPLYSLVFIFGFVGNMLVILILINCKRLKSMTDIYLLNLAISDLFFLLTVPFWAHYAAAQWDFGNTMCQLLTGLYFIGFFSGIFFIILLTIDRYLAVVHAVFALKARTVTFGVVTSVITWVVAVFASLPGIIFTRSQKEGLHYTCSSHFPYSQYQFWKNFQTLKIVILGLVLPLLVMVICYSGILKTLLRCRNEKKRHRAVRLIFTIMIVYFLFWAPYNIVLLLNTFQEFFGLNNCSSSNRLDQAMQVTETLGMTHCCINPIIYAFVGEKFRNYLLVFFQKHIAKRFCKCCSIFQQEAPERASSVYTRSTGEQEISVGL
Mitogen-activated protein kinase 1, sequence (P28482 whole entry): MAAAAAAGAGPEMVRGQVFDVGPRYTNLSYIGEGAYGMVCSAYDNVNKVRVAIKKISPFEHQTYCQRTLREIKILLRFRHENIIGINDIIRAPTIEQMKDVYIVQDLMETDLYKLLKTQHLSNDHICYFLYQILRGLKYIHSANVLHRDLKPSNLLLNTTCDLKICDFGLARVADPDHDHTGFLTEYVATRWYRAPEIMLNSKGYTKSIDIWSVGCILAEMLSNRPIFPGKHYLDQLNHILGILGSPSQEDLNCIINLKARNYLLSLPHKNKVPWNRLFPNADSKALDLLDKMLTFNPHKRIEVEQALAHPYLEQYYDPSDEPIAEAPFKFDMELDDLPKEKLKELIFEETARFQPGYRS

CC(C)(C)NCC(O)c1ccc(O)c(CO)c1 (stereo not given) [ALBUTEROL]
Not Active: IC50 [1] | IC50 [2] | Ki [2] | IC50 [3] | IC50 [4] | IC50 [5] | IC50 [6] | IC50 [7] | IC50 [8] | IC50 [9] | IC50 [10] | IC50 [11]

CO[C@@H]1[C@@H](O[C@@H]2O[C@H](C)[C@@H](O[C@H]3C[C@@](C)(O)[C@@H](OC(=O)CC(C)C)[C@H](C)O3)[C@H](N(C)C)[C@H]2O)[C@@H](CC=O)C[C@@H](C)[C@@H](O)/C=C/C=C/C[C@@H](C)OC(=O)C[C@H]1O [KITASAMYCIN]
Not Active: IC50 [1] | IC50 [2] | Ki [2] | IC50 [3] | IC50 [4] | IC50 [5] | IC50 [6] | IC50 [7] | IC50 [8] | IC50 [9] | IC50 [10] | IC50 [11]

Clc1ccc(C(c2ccccc2Cl)C(Cl)Cl)cc1 (stereo not given) [MITOTANE]
Not Active: IC50 [1] | IC50 [2] | Ki [2] | IC50 [3] | IC50 [4] | IC50 [5] | IC50 [6] | IC50 [7] | IC50 [8] | IC50 [9] | IC50 [10] | IC50 [11]

C=CC[C@@H]1/C=C(\C)C[C@H](C)C[C@H](OC)[C@H]2O[C@@](O)(C(=O)C(=O)N3CCCC[C@H]3C(=O)O[C@H](/C(C)=C/[C@@H]3CC[C@@H](O)[C@H](OC)C3)[C@H](C)[C@@H](O)CC1=O)[C@H](C)C[C@@H]2OC [TACROLIMUS ANHYDROUS]
Not Active: IC50 [1] | IC50 [2] | Ki [2] | IC50 [3] | IC50 [4] | IC50 [5] | IC50 [6] | IC50 [7] | IC50 [8] | IC50 [9] | IC50 [10] | IC50 [11]

COc1ccc(C(CN(C)C)C2(O)CCCCC2)cc1 (stereo not given) [VENLAFAXINE]
Not Active: IC50 [1] | IC50 [2] | Ki [2] | IC50 [3] | IC50 [4] | IC50 [5] | IC50 [6] | IC50 [7] | IC50 [8] | IC50 [9] | IC50 [10] | IC50 [11]

CC(C)(C)NCC(O)c1cc(O)cc(O)c1 (stereo not given) [TERBUTALINE]
Not Active: IC50 [1] | IC50 [2] | Ki [2] | IC50 [3] | IC50 [4] | IC50 [5] | IC50 [6] | IC50 [7] | IC50 [8] | IC50 [9] | IC50 [10] | IC50 [11]

Cc1cc(NS(=O)(=O)c2ccc(N)cc2)no1 [SULFAMETHOXAZOLE]
Not Active: IC50 [1] | IC50 [2] | Ki [2] | IC50 [3] | IC50 [4] | IC50 [5] | IC50 [6] | IC50 [7] | IC50 [8] | IC50 [9] | IC50 [10] | IC50 [11]

COC(=O)c1ccc(O)cc1 [METHYLPARABEN]
Not Active: IC50 [1] | IC50 [2] | Ki [2] | IC50 [3] | IC50 [4] | IC50 [5] | IC50 [6] | IC50 [7] | IC50 [8] | IC50 [9] | IC50 [10] | IC50 [11]

Cc1ncc([N+](=O)[O-])n1CC(C)O (stereo not given) [SECNIDAZOLE]
Not Active: IC50 [1] | IC50 [2] | Ki [2] | IC50 [3] | IC50 [4] | IC50 [5] | IC50 [6] | IC50 [7] | IC50 [8] | IC50 [9] | IC50 [10] | IC50 [11]

CCC[C@@H]1C[C@@H](C(=O)N[C@@H]([C@H]2O[C@H](SC)[C@H](O)[C@@H](O)[C@H]2O)[C@@H](C)O)N(C)C1 [LINCOMYCIN]
Not Active: IC50 [1] | IC50 [2] | Ki [2] | IC50 [3] | IC50 [4] | IC50 [5] | IC50 [6] | IC50 [7] | IC50 [8] | IC50 [9] | IC50 [10] | IC50 [11]

Reference: ChEMBL document CHEMBL1909046, “DrugMatrix in vitro pharmacology data”
